Experimental data as given in paper PMC9738179, “New Nucleic Base-Tethered Trithiolato-Bridged Dinuclear Ruthenium(II)-Arene Compounds: Synthesis and Antiparasitic Activity” (Molecules, 2022).
“And” between values parts separate entries of the source, which are not always exact repeats. Equal values may be shown once.

Assays:
[1] = tested on: T. gondii β-gal tachyzoites; assay: Dose-response study (IC50) against T. gondii β-gal tachyzoites; assay type: cell-based, Toxoplasma gondii; conditions: 8 serial concentrations 0.007-1 µM, 72 h
Method: (§1) The screening cascade for the compounds was described in former studies. All compounds were prepared as 1 mM stock solutions from powder, in dimethyl sulfoxide (DMSO, Sigma, St. Louis, MO, USA). For in vitro activity and cytotoxicity assays, HFF were seeded at 5 × 10^3/well and allowed to grow to confluence in phenol-red free culture medium at 37 °C and 5% CO2. T. gondii tachyzoites were released from host cells, and HFF monolayers were infected with freshly isolated parasites (1 × 10^3/well), and compounds were added concomitantly with infection.
For the dose-response study (IC50 values), measurements for T. gondii β-gal were performed. The selected compounds were added concomitantly with infection in 8 serial concentrations 0.007, 0.01, 0.03, 0.06, 0.12, 0.25, 0.5, and 1 μM.
(§2) To measure the activity of the tested compound on T. gondii β-gal parasites, after a period of 72 h of culture at 37 °C/5% CO2, the culture medium was aspirated, and cells were permeabilized by adding 90 μL PBS (phosphate buffered saline) with 0.05% Triton X-100. Next, 10 μL of 5 mM chlorophenolred-β-D-galactopyranoside (CPRG; Roche Diagnostics, Rotkreuz, Switzerland, substrate for the β-galactosidase) in PBS were added. Release of chlorophenol red was measured at 570 nm using an EnSpire® multimode plate reader (PerkinElmer, Inc., Waltham, MA, USA). A 100% proliferation of T. gondii β-gal was assigned to control parasites treated only with DMSO. For the primary screening at 0.1 and 1 μM, the activity was measured as the release of chlorophenol red over time and was calculated as percentage from the respective DMSO treated control, which represented 100% of T. gondii β-gal growth.
For the IC50 assays, the activity measured as the release of chlorophenol red over time was proportional to the number of live parasites down to 50 per well as determined in pilot assays. IC50 values were calculated after the logit-log-transformation of relative growth and subsequent regression analysis. All calculations were performed using the corresponding software tool contained in the Excel software package (Microsoft, Redmond, WA, USA).

[2] = tested on: human foreskin fibroblasts (HFF); assay: Cytotoxicity in non-infected HFF by alamarBlue assay; assay type: cell-based
Method: as §1
Cytotoxicity assays using uninfected confluent HFF host cells were performed by the alamarBlue assay as previously reported. Confluent HFF monolayers in 96 well-plates were exposed to 0.1, 1, and 2.5 μM of each compound. Non-treated HFF as well as DMSO controls (0.01%, 0.1%, and 0.25%) were included. After 72 h of incubation at 37 °C/5% CO2, the medium was removed, and the plates were washed once with PBS. Resazurin suspended in PBS to a final concentration of 0.01 g/L was added to each well (200 μL/well). Fluorescence was measured at excitation wavelength 530 nm and emission wavelength […] using an EnSpire® multimode plate reader (PerkinElmer, Inc, Waltham, MA, USA). The cytotoxicity values were calculated as percentage of the respective DMSO control, which represented 100% of HFF viability.

[3] = tested on: T. gondii β-gal tachyzoites; assay: Primary screening: T. gondii β-gal proliferation in HFF monolayers at 0.1 and 1 µM (CPRG readout); assay type: cell-based, Toxoplasma gondii; conditions: tachyzoites cultured in HFF, 72 h, relative to DMSO control
Method: as §1
In the primary screening, HFF monolayers infected with T. gondii β-gal were treated with 0.1 and 1 µM of each compound, or the corresponding concentration of DMSO (0.01 or 0.1%, respectively) as controls and were incubated for 72 h at 37 °C/5% CO2 as previously described.
as §2

[4] = 0.1 µM, non-infected HFF, 72 h, relative to DMSO control, triplicate
[5] = 2.5 µM, control 0.25% DMSO = 100%, six replicates
[6] = 1 µM, non-infected HFF, 72 h, relative to DMSO control, triplicate

Compound	IC50 [1] [µM]	HFF Viability (%) [2, 4] [%]	HFF Viability (%) [2, 5]	T. gondii β-gal Growth (%) ([3]; 0.1 µM)	T. gondii β-gal Growth (%) ([3]; 1 µM)	HFF Viability (%) ([2]; 0.1 µM)	HFF Viability (%) ([2]; 1 µM)	HFF Viability (%) ([2]; 2.5 µM)	HFF Viability (%) [2, 6] [%]
C#CCCCC(=O)Nc1ccc([S+]2[Ru-]3[S+](Cc4ccc(C(C)(C)C)cc4)[Ru-]2[S+]3Cc2ccc(C(C)(C)C)cc2)cc1.Cc1ccc(C(C)C)cc1.Cc1ccc(C(C)C)cc1.[Cl-] (centres unmarked) [Compound 5]	0.038	101 ± 0	34%	21 ± 2	0 ± 0				
C#Cc1ccc(C(=O)Nc2ccc([S+]3[Ru-]4[S+](Cc5ccc(C(C)(C)C)cc5)[Ru-]3[S+]4Cc3ccc(C(C)(C)C)cc3)cc2)cc1.Cc1ccc(C(C)C)cc1.Cc1ccc(C(C)C)cc1.[Cl-] (centres unmarked) [Compound 6]	0.288	95 ± 1	17%	112 ± 1	6 ± 1				
C#CCOC(=O)Cc1ccc([S+]2[Ru-]3[S+](Cc4ccc(C(C)(C)C)cc4)[Ru-]2[S+]3Cc2ccc(C(C)(C)C)cc2)cc1.Cc1ccc(C(C)C)cc1.Cc1ccc(C(C)C)cc1.[Cl-] (centres unmarked) [Compound 7]	0.289	100 ± 2	51%	19 ± 1	0 ± 0				
CC(C)(C)c1ccc(C[S+]2[Ru-]3[S+](Cc4ccc(C(C)(C)C)cc4)[Ru-]2[S+]3c2ccccc2CN=[N+]=[N-])cc1.Cc1ccc(C(C)C)cc1.Cc1ccc(C(C)C)cc1.[Cl-] (centres unmarked) [Compound 9]	0.048	96 ± 1	11%		1 ± 1				
CC(C)(C)c1ccc(C[S+]2[Ru-]3[S+](Cc4ccc(C(C)(C)C)cc4)[Ru-]2[S+]3c2ccc(N=[N+]=[N-])cc2)cc1.Cc1ccc(C(C)C)cc1.Cc1ccc(C(C)C)cc1.[Cl-] (centres unmarked) [Compound 10]	0.064	94 ± 1	38%		1 ± 0				
Nc1ncnc2c1ncn2CCO [Compound 14A, 9-(2-hydroxyethyl)adenine]				104 ± 2	75 ± 11				
CC(C)(C)c1ccc(C[S+]2[Ru-]3[S+](Cc4ccc(C(C)(C)C)cc4)[Ru-]2[S+]3c2ccccc2Cn2cc(Cn3ccc(=O)[nH]c3=O)nn2)cc1.Cc1ccc(C(C)C)cc1.Cc1ccc(C(C)C)cc1.[Cl-] (centres unmarked) [Compound 19]	0.46	93 ± 2	50%						
Cc1ccc(C(C)C)cc1.Cc1ccc(C(C)C)cc1.Cc1cn(Cc2cn(Cc3ccccc3[S+]3[Ru-]4[S+](Cc5ccc(C(C)(C)C)cc5)[Ru-]3[S+]4Cc3ccc(C(C)(C)C)cc3)nn2)c(=O)[nH]c1=O.[Cl-] (centres unmarked) [Compound 20]	0.363			102 ± 0	1 ± 0	100 ± 2	71 ± 2	39	
CC(C)(C)c1ccc(C[S]2[Ru]3[S](Cc4ccc(C(C)(C)C)cc4)[Ru+]2[S]3c2ccccc2Cn2cc(Cn3ccc(N)nc3=O)nn2)cc1.Cc1ccc(C(C)C)cc1.Cc1ccc(C(C)C)cc1.[Cl-] [Compound 21]	0.046				0 ± 0	109 ± 2	89 ± 1	38	
CC(C)(C)c1ccc(C[S]2[Ru]3[S](Cc4ccc(C(C)(C)C)cc4)[Ru+]2[S]3c2ccccc2Cn2cc(Cn3cnc4c(N)ncnc43)nn2)cc1.Cc1ccc(C(C)C)cc1.Cc1ccc(C(C)C)cc1.[Cl-] [Compound 22]	0.108			79 ± 3	1 ± 0	102 ± 0	77 ± 2	52	
CC(C)(C)c1ccc(C[S]2[Ru]3[S](Cc4ccc(C(C)(C)C)cc4)[Ru+]2[S]3c2ccc(-n3cc(Cn4ccc(=O)[nH]c4=O)nn3)cc2)cc1.Cc1ccc(C(C)C)cc1.Cc1ccc(C(C)C)cc1.[Cl-] [Compound 23]	0.426	100 ± 1	64%						
CC(C)(C)c1ccc(C[S]2[Ru]3[S](Cc4ccc(C(C)(C)C)cc4)[Ru+]2[S]3c2ccc(-n3cc(Cn4ccc(N)nc4=O)nn3)cc2)cc1.Cc1ccc(C(C)C)cc1.Cc1ccc(C(C)C)cc1.[Cl-] [Compound 25]				82 ± 6		94 ± 9	91 ± 8		
CC(C)(C)c1ccc(C[S]2[Ru]3[S](Cc4ccc(C(C)(C)C)cc4)[Ru+]2[S]3c2ccc(-n3cc(Cn4cnc5c(N)ncnc54)nn3)cc2)cc1.Cc1ccc(C(C)C)cc1.Cc1ccc(C(C)C)cc1.[Cl-] [Compound 26]	0.178			109 ± 6		109 ± 2	76 ± 0	45	
NC(=O)c1ccc(-c2cn(Cc3cc(=O)[nH]c(=O)[nH]3)nn2)cc1 [Compound 29]						101 ± 1			
CC(C)(C)c1ccc(C[S]2[Ru]3[S](Cc4ccc(C(C)(C)C)cc4)[Ru+]2[S]3c2ccc(CC(=O)OCc3cn(Cc4cc(=O)[nH]c(=O)[nH]4)nn3)cc2)cc1.Cc1ccc(C(C)C)cc1.Cc1ccc(C(C)C)cc1.[Cl-] [Compound 30]	0.659	114 ± 0	97%						
CC(C)(C)c1ccc(C[S]2[Ru]3[S](Cc4ccc(C(C)(C)C)cc4)[Ru+]2[S]3c2ccc(CC(=O)NCc3cn(Cc4cc(=O)[nH]c(=O)[nH]4)nn3)cc2)cc1.Cc1ccc(C(C)C)cc1.Cc1ccc(C(C)C)cc1.[Cl-] [Compound 31]						99 ± 3			
CC(C)(C)c1ccc(C[S]2[Ru]3[S](Cc4ccc(C(C)(C)C)cc4)[Ru+]2[S]3c2ccccc2Cn2cc(-c3ccccc3)nn2)cc1.Cc1ccc(C(C)C)cc1.Cc1ccc(C(C)C)cc1.[Cl-] [Compound 34]	0.092	96 ± 1	highly toxic and 3%	7 ± 0	1 ± 0				70 ± 1
CC(C)(C)c1ccc(C[S]2[Ru]3[S](Cc4ccc(C(C)(C)C)cc4)[Ru+]2[S]3c2ccccc2Cn2cc(-c3ccc(CO)cc3)nn2)cc1.Cc1ccc(C(C)C)cc1.Cc1ccc(C(C)C)cc1.[Cl-] [Compound 35]				1 ± 0	0 ± 0	89 ± 0			
CC(C)(C)c1ccc(C[S]2[Ru]3[S](Cc4ccc(C(C)(C)C)cc4)[Ru+]2[S]3c2ccccc2Cn2cc(CO)nn2)cc1.Cc1ccc(C(C)C)cc1.Cc1ccc(C(C)C)cc1.[Cl-] [Compound 36]	0.111	115 ± 1	low toxicity and medium toxicity and 77%		0 ± 0				
CC(C)(C)c1ccc(C[S]2[Ru]3[S](Cc4ccc(C(C)(C)C)cc4)[Ru+]2[S]3c2ccc(-n3cc(-c4ccccc4)nn3)cc2)cc1.Cc1ccc(C(C)C)cc1.Cc1ccc(C(C)C)cc1.[Cl-] [Compound 37]	0.096	99 ± 1	highly toxic and 17%	13 ± 1	0 ± 0				71 ± 0
CC(C)(C)c1ccc(C[S]2[Ru]3[S](Cc4ccc(C(C)(C)C)cc4)[Ru+]2[S]3c2ccc(-n3cc(CO)nn3)cc2)cc1.Cc1ccc(C(C)C)cc1.Cc1ccc(C(C)C)cc1.[Cl-] [Compound 38]	0.128			42 ± 2	0 ± 0	104 ± 1	71 ± 1	59	
